Data from ChEMBL document CHEMBL4017472, “New modified 2-aminobenzimidazole nucleosides: Synthesis and evaluation of their activity against herpes simplex virus type 1” (Bioorg Med Chem Lett, 2017).

Assays:
[1] = Cytotoxicity against African green monkey Vero E6 cells measured after 3 days by trypan blue assay; assay type: cell-based, Vero C1008; details: chlorocebus sabaeus
Human alphaherpesvirus 1 [2] = experiment: Antiviral activity against HSV1 L2 infected in African green monkey Vero E6 cells assessed as reduction in virus-induced cytopathic effect; assay type: functional; details: Human alphaherpesvirus 1, L2, Vero C1008
[3] = Selectivity index, ratio of MCC for African green monkey Vero E6 cells to IC50 for HSV-1 L2 infected in African green monkey Vero E6 cells; design: species or system Vero C1008
Human alphaherpesvirus 1 [4] = experiment: Antiviral activity against acyclovir-resistant HSV-1 L2 infected in African green monkey Vero E6 cells assessed as reduction in virus-induced cytopathic effect; assay type: functional; details: Human alphaherpesvirus 1, L2, Vero C1008
[5] = Selectivity index, ratio of MCC for African green monkey Vero E6 cells to IC50 for acyclovir-resistant HSV-1 L2 infected in African green monkey Vero E6 cells; design: species or system Vero C1008
Human alphaherpesvirus 1 [6] = experiment: Antiviral activity against HSV-1 L2/Rp-ACV/2 infected in African green monkey Vero E6 cells assessed as reduction in virus-induced cytopathic effect; assay type: functional; details: Human alphaherpesvirus 1, L2/Rp-ACV/2, Vero C1008
[7] = Selectivity index, ratio of MCC for African green monkey Vero E6 cells to IC50 for HSV-1 L2/Rp-ACV/2 infected in African green monkey Vero E6 cells; design: species or system Vero C1008
Human alphaherpesvirus 1 [8] = experiment: Antiviral activity against foscarnet-resistant HSV-1 F+ infected in African green monkey Vero E6 cells assessed as reduction in virus-induced cytopathic effect; assay type: functional; details: Human alphaherpesvirus 1, F+, Vero C1008
[9] = Selectivity index, ratio of MCC for African green monkey Vero E6 cells to IC50 for HSV-1 F+ infected in African green monkey Vero E6 cells; design: species or system Vero C1008
Human alphaherpesvirus 1 [10] = experiment: Antiviral activity against acyclovir and foscarnet-resistant HSV-1 L2 infected in African green monkey Vero E6 cells assessed as reduction in virus-induced cytopathic effect; assay type: functional; details: Human alphaherpesvirus 1, L2, Vero C1008
[11] = Selectivity index, ratio of MCC for African green monkey Vero E6 cells to IC50 for acyclovir and foscarnet-resistant HSV-1 L2 infected in African green monkey Vero E6 cells; design: species or system Vero C1008
Human alphaherpesvirus 1 [12] = experiment: Antiviral activity against acyclovir and cidofovir-resistant HSV-1 L2 infected in African green monkey Vero E6 cells assessed as reduction in virus-induced cytopathic effect; assay type: functional; details: Human alphaherpesvirus 1, L2, Vero C1008
[13] = Selectivity index, ratio of MCC for African green monkey Vero E6 cells to IC50 for acyclovir and cidofovir-resistant HSV-1 L2 infected in African green monkey Vero E6 cells; design: species or system Vero C1008

Compound | MCC at 72 h [1] [µM] | IC50 (Human alphaherpesvirus 1 [2]) [µM] | IC95 (Human alphaherpesvirus 1 [2]) [µM] | Selectivity Index [3] | IC50 (Human alphaherpesvirus 1 [4]) [µM] | IC95 (Human alphaherpesvirus 1 [4]) [µM] | Selectivity Index [5] | IC50 (Human alphaherpesvirus 1 [6]) [µM] | IC95 (Human alphaherpesvirus 1 [6]) [µM] | Selectivity Index [7] | IC50 (Human alphaherpesvirus 1 [8]) [µM] | IC95 (Human alphaherpesvirus 1 [8]) [µM] | Selectivity Index [9] | IC50 (Human alphaherpesvirus 1 [10]) [µM] | IC95 (Human alphaherpesvirus 1 [10]) [µM] | Selectivity Index [11] | IC50 (Human alphaherpesvirus 1 [12]) [µM] | IC95 (Human alphaherpesvirus 1 [12]) [µM] | Selectivity Index [13]
O.O.O.O.O.O.O=C([O-])P(=O)([O-])[O-].[Na+].[Na+].[Na+] | 833 | 104 | 208 | 8 | 104 | 208 | 8 | 52 | 104 | 16 | 833 | > 833 | 1 | 417 | > 833 | 2 | 104 | 208 | 8
CC(C)Nc1nc2cc(Cl)c(Cl)cc2n1[C@H]1O[C@@H](CO)[C@H](O)[C@@H]1O [MARIBAVIR] | 665 | 665 | > 665 | 1 |  |  |  |  |  |  |  |  |  |  |  |  |  |  | 
Nc1ccn(C[C@@H](CO)OCP(=O)(O)O)c(=O)n1.O.O [CIDOFOVIR] | > 358 | 14 | 55.9 | >26 | 14 | 55.9 | >26 | 1.8 | 27.9 | >204 | 27.9 | 448 | >13 | 7 | 27.9 | >51 | 112 | 895 | >6.4
NC(=O)c1ncn([C@@H]2O[C@H](CO)[C@@H](O)[C@H]2O)n1 [RIBAVIRIN] | > 4100 | 512 | 2050 | >8 | 1020 | > 4100 | >4 | 1020 | > 4100 | >4 |  | > 4100 | >4 | 1020 | > 4100 | >4 | 1020 | > 4100 | >4
Nc1nc2cc(F)c(F)cc2n1[C@H]1C[C@H](O)[C@@H](CO)O1 | > 3500 | 876 | 3510 | >4 |  |  |  |  |  |  |  |  |  |  |  |  |  |  | 
Nc1nc2c(ncn2COCCO)c(=O)[nH]1 [ACYCLOVIR] | > 444 | 1.73 | 6.9 | >256 | > 444 | > 444 | >1 | 27.8 | 111 | 16 | 3.5 | 13.9 | >128 | > 444 | > 444 | >1 | 17.3 | 139 | >26
